# pKd: −log10 of the molar value. Counter-ions that a name gives are not always drawn. Starred links: 1 amine or outer side, 2 acyl side, 3 side chain; linkers in the order of their positions; H or OH if unused. Positions of bridges follow the written chain, without caps; N, C: chain ends. Non-standard residues stand in square brackets, D forms with d. Residues, ends and D or L forms follow the SMILES beside them. Chains are numbered I, II in the order given. *: point of attachment. TATA = O=C(CC[*:1])N1CN(C(=O)CC[*:2])CN(C(=O)CC[*:3])C1; Dolaproine = CO[C@@H]([C@@H]1CCCN1)[C@@H](C)C(=O)O; Dil = CC[C@H](C)[C@H](NC)[C@@H](CC(=O)O)OC; X2 = O=C(CCCC(=O)[*:2])NCCC(=O)[*:1]; PABC = O=C(OCc1ccc(N[*:1])cc1)[*:2]; X1 = C[C@@H](N*)[C@@H](O)c1ccccc1; Hyp = O=C(O)[C@@H]1C[C@@H](O)CN1; hArg = N=C(N)NCCCC[C@H](N)C(=O)O; Cit = NC(=O)NCCC[C@H](N)C(=O)O; NMeV = CN[C@H](C(=O)O)C(C)C; hCys = N[C@@H](CCS)C(=O)O; Sar = CNCC(=O)O
# Target: T1, Human EphA2 (Homo sapiens, UniProt P29317)
# T1 construct: purchased Sino Biological 13926-H08HD
# Test: Binding capacity test to EphA2 protein (SPR, Biacore 8K)
# Experimental: To detect the affinity of the compound to be tested to the target protein EphA2 using the SPR method.
# • Biacore 8K (GE Healthcare). • 96-well Plate (Cat #650101, greiner bio-one) • CM5 chip (Cat #BR-1005-30, GE Healthcare) • Amine Coupling Kit (Cat #BR-1000-50, GE Healthcare) EDC NHS 1 M ethanolamine. • 10 mM sodium acetate pH 4.5 (Cat #BR-1003-50, GE Healthcare) • DMSO (Cat #D4540, Sigma) • P20 (Cat #BR-1000-54, GE Healthcare). • PBS (Cat #BR-1006-72, GE Healthcare). • EphA2 (Cat #13926-H08HD, Sino Biological)
# In this experiment, the amino coupling method was used. The target protein EphA2 was directly immobilized on the CM5 chip using Biacore 8K. The compound to be tested as an analyte was then diluted to a required concentration gradient with a buffer (10 mM PBS, pH 7.4, 137 mM NaCl, 2.7 mM KCl, 5% DMSO, and 0.05% P20) for multi-cycle kinetic detection, in which each cycle is formed by 180 seconds of sample injection and 180 seconds of dissociation, and then the next cycle was performed, to obtain kinetic analysis data on the affinity of the target protein EphA2 to the compound to be tested. The final data were subjected to Kinetics fitting analysis based on a 1:1 model using Biacore Insight Evaluation Software (V 2.0.15.12933).
# 1) Preparation of the buffer: 10 mM PBS, pH 7.4, 137 mM NaCl, 2.7 mM KCl, 5% DMSO, and 0.05% P20.
# 2) Activation of the CM5 chip: The CM5 chip was activated with 400 mM EDC and 100 mM NHS at a flow rate of 10 μL/min for 420 seconds.
# 3) Coupling of the target protein: The target protein was diluted to 10 μg/mL with 10 mM sodium acetate (pH 4.5) and coupled at a flow rate of 10 μL/min for 284 s. The 1 #, 2 #, and 3 #channels on the chip were used in the experiment, and the coupling results were 1639.9RU, 1747.8RU, and 1702.2RU, respectively.
# 4) Blocking of the CM5 chip: The CM5 chip was blocked with 1 M ethanolamine at a flow rate of 10 μL/min for 420 seconds.
# 5) Analyte concentration: The compound to be tested was diluted with the buffer. The compound to be tested was diluted from 100 nM to 0.78 nM in a 2-fold gradient.
# 6) Sample injection analysis: Each concentration of the working solution of the compound to be tested corresponded to one cycle, with a flow rate of 30 μL/min for binding for 180 seconds and dissociating for 180 seconds. The last cycle was a 5% DMSO solvent correction cycle. 7) All results were subjected to kinetics fitting analysis based on a 1:1 model.
# The experimental data of five effective concentrations of the compounds of the present invention were selected for Kinetics fitting analysis based on a 1:1 model using Biacore Insight Evaluation Software (V 2.0.15.12933).
# T1 sequence (P29317 24-534 limits assumed): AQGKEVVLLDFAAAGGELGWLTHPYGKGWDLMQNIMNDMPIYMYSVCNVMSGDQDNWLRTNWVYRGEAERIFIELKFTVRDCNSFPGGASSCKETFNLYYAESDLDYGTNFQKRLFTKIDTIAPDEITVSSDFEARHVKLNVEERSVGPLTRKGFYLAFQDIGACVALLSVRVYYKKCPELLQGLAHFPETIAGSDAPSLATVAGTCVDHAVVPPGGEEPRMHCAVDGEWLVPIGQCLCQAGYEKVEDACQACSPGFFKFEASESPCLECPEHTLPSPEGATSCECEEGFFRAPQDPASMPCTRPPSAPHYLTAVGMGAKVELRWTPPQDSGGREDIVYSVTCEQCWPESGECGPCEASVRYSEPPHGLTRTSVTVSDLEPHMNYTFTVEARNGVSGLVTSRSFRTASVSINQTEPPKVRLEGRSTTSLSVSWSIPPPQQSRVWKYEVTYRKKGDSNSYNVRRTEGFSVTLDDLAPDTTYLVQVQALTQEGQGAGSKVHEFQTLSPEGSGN
row,Structure (SMILES),pKd
1,CC[C@H](C)[C@@H]([C@@H](CC(=O)N1CCC[C@H]1[C@H](OC)[C@@H](C)C(=O)N[C@H](C)[C@@H](O)c1ccccc1)OC)N(C)C(=O)[C@@H](NC(=O)[C@H](C(C)C)N(C)C(=O)OCc1ccc(NC(=O)[C@H](CCCNC(N)=O)NC(=O)[C@@H](NC(=O)CCCC(=O)NCCC(=O)N(C)CC(=O)N(C)CC(=O)N(C)CC(=O)N(C)CC(=O)N(C)CC(=O)N(C)CC(=O)N(C)CC(=O)N(C)CC(=O)N(C)CC(=O)N(C)CC(=O)N[C@H]2CCCCNC(=O)C[C@@H](C(=O)N[C@H]3CSCCC(=O)N4CN5CN(C4)C(=O)CCSC[C@H](NC(=O)[C@H](CC(C)C)NC(=O)[C@@H]4CCCN4C(=O)[C@H](CC(N)=O)NC(=O)[C@H](C(C)C)NC(=O)[C@H](CC(C)C)NC(=O)[C@@H]4C[C@@H](O)CN4C3=O)C(=O)N[C@@H](CC(C)C)C(=O)N[C@@H](Cc3c[nH]cn3)C(=O)N3CCC[C@H]3C(=O)N[C@H](CC(=O)O)C(=O)N[C@@H](Cc3c[nH]c4ccccc34)C(=O)N[C@@H](CCCCNC(=N)N)C(=O)N[C@H](C(N)=O)CSCCC5=O)NC(=O)[C@H](CCCCNC(=N)N)NC2=O)C(C)C)cc1)C(C)C [Acetate salt of PDC_4] (I: [Sar][Sar][Sar][Sar][Sar][Sar][Sar][Sar][Sar][Sar]K[hArg]DC[Hyp]LVNPLCLHP[dD]W[hArg]C-NH2 / II: V[Cit][PABC][NMeV]V[Dil][Dolaproine]-X1; lactam I:11-I:13; linker I:14-I:21-I:28 via TATA; linker I:N-II:N via X2),7.88
2,CC[C@H](C)[C@@H]([C@@H](CC(=O)N1CCC[C@H]1[C@H](OC)[C@@H](C)C(=O)N[C@H](C)[C@@H](O)c1ccccc1)OC)N(C)C(=O)[C@@H](NC(=O)[C@H](C(C)C)N(C)C(=O)OCc1ccc(NC(=O)[C@H](CCCNC(N)=O)NC(=O)[C@@H](NC(=O)CCCC(=O)NCCC(=O)N(C)CC(=O)N(C)CC(=O)N(C)CC(=O)N(C)CC(=O)N(C)CC(=O)N(C)CC(=O)N(C)CC(=O)N(C)CC(=O)N(C)CC(=O)N(C)CC(=O)N[C@H]2CCCCNC(=O)C[C@@H](C(=O)N[C@H]3CSCCC(=O)N4CN5CN(C4)C(=O)CCSC[C@H](NC(=O)[C@H](CC(C)C)NC(=O)[C@@H]4CCCN4C(=O)[C@H](CC(N)=O)NC(=O)[C@H](C(C)C)NC(=O)[C@H](CC(C)C)NC(=O)[C@@H]4C[C@@H](O)CN4C3=O)C(=O)N[C@@H](CC(C)C)C(=O)N[C@@H](Cc3c[nH]cn3)C(=O)N3CCC[C@H]3C(=O)N[C@H](CC(=O)O)C(=O)N[C@@H](Cc3c[nH]c4ccccc34)C(=O)N[C@@H](CCCCNC(=N)N)C(=O)N[C@H](C(N)=O)CCSCCC5=O)NC(=O)[C@H](CCCCNC(=N)N)NC2=O)C(C)C)cc1)C(C)C [Acetate salt of PDC_5] (I: [Sar][Sar][Sar][Sar][Sar][Sar][Sar][Sar][Sar][Sar]K[hArg]DC[Hyp]LVNPLCLHP[dD]W[hArg][hCys]-NH2 / II: V[Cit][PABC][NMeV]V[Dil][Dolaproine]-X1; lactam I:11-I:13; linker I:14-I:21-I:28 via TATA; linker I:N-II:N via X2),8.17
